The term IC50 denotes the point on the concentration scale where inhibition reaches its midpoint. A high value points to a need for much substance.

This test relates to PC3 cells. As to the kind of experiment: NAMPT Cell Proliferation Assay. It is filed as cell-based. The conditions noted are these: Homo sapiens, PC-3, 120 h, 5 days incubation, cell viability by Cell Titer Glo. The method in brief: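 Five-day CellTiter-Glo viability readout in PC3 cells grown in RPMI/10% heat-inactivated FBS. Compounds added after overnight attachment as a 10-fold dilution series, […]. Percent inhibition fitted to sigmoidal dose-response to derive IC50.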
(In general: ATP-based viability assays read luminescence as a measure of living cells.)
`O=C(Nc1ccc(S(=O)(=O)C2CCN(C(=O)Cc3ccc(F)cc3)CC2)cc1)C1CN(c2cccnn2)C1` [Example 579, N-[4-({1-[(4-fluorophenyl)acetyl]piperidin-4-yl}sulfonyl)phenyl]-1-(pyridazin-3-yl)azetidine-3-carboxamide] displayed an IC50 of 267 nM.

`Cc1cccc(C(=O)N2CCC(S(=O)(=O)c3ccc(NC(=O)C4CN(c5cccnn5)C4)cc3)CC2)c1` [Example 580, N-(4-{[1-(3-methylbenzoyl)piperidin-4-yl]sulfonyl}phenyl)-1-(pyridazin-3-yl)azetidine-3-carboxamide]: the half-inhibitory concentration (IC50) stood at 78 nM. As for `Cc1cccc(C(=O)N2CCC(S(=O)(=O)c3ccc(NC(=O)C4CN(c5cccnn5)C4)cc3)CC2)c1C` [Example 581, N-(4-{[1-(2,3-dimethylbenzoyl)piperidin-4-yl]sulfonyl}phenyl)-1-(pyridazin-3-yl)azetidine-3-carboxamide], 80.7 nM corresponded to half-maximal inhibition (IC50). Then `O=C(Nc1ccc(S(=O)(=O)C2CCN(C(=O)Cc3cccc(F)c3)CC2)cc1)C1CN(c2cccnn2)C1` [Example 582, N-[4-({1-[(3-fluorophenyl)acetyl]piperidin-4-yl}sulfonyl)phenyl]-1-(pyridazin-3-yl)azetidine-3-carboxamide], with 627 nM; and `O=C(Nc1ccc(S(=O)(=O)C2CCN(C(=O)c3cccc(F)c3)CC2)cc1)C1CN(c2cccnn2)C1` [Example 583, N-(4-{[1-(3-fluorobenzoyl)piperidin-4-yl]sulfonyl}phenyl)-1-(pyridazin-3-yl)azetidine-3-carboxamide], with 87.4 nM; and `O=C(Nc1ccc(S(=O)(=O)C2CCN(C(=O)c3cccc(C(F)(F)F)c3)CC2)cc1)C1CN(c2cccnn2)C1` [Example 584, 1-(pyridazin-3-yl)-N-[4-({1-[3-(trifluoromethyl)benzoyl]piperidin-4-yl}sulfonyl)phenyl]azetidine-3-carboxamide], with 87.2 nM.

`O=C(Nc1ccc(S(=O)(=O)C2CCN(C(=O)Cc3cc(F)cc(F)c3)CC2)cc1)C1CN(c2cccnn2)C1` [Example 585, N-[4-({1-[(3,5-difluorophenyl)acetyl]piperidin-4-yl}sulfonyl)phenyl]-1-(pyridazin-3-yl)azetidine-3-carboxamide]: the concentration for half-maximal inhibition (IC50) came out at 283 nM.

Compound `O=C(Nc1ccc(S(=O)(=O)C2CCN(C(=O)c3ccc(F)cc3F)CC2)cc1)C1CN(c2cccnn2)C1` [Example 586, N-(4-{[1-(2,4-difluorobenzoyl)piperidin-4-yl]sulfonyl}phenyl)-1-(pyridazin-3-yl)azetidine-3-carboxamide] came in with an IC50 of 107 nM.

`O=C(Nc1ccc(S(=O)(=O)C2CCN(C(=O)c3ccc(C(F)(F)F)cc3)CC2)cc1)C1CN(c2cccnn2)C1` [Example 587, 1-(pyridazin-3-yl)-N-[4-({1-[4-(trifluoromethyl)benzoyl]piperidin-4-yl}sulfonyl)phenyl]azetidine-3-carboxamide]: the IC50 turned out to be 81.4 nM. As for `O=C(Nc1ccc(S(=O)(=O)C2CCN(C(=O)c3ccc(F)cc3)CC2)cc1)C1CN(c2cccnn2)C1` [Example 588, N-(4-{[1-(4-fluorobenzoyl)piperidin-4-yl]sulfonyl}phenyl)-1-(pyridazin-3-yl)azetidine-3-carboxamide], the figure is 113 nM; as for `O=C(Nc1ccc(S(=O)(=O)C2CCN(C(=O)c3cccc(F)c3F)CC2)cc1)C1CN(c2cccnn2)C1` [Example 589, N-(4-{[1-(2,3-difluorobenzoyl)piperidin-4-yl]sulfonyl}phenyl)-1-(pyridazin-3-yl)azetidine-3-carboxamide], 97.9 nM. As for `O=C(Nc1ccc(S(=O)(=O)C2CCN(C(=O)c3ccc(Cl)cc3Cl)CC2)cc1)C1CN(c2cccnn2)C1` [Example 590, N-(4-{[1-(2,4-dichlorobenzoyl)piperidin-4-yl]sulfonyl}phenyl)-1-(pyridazin-3-yl)azetidine-3-carboxamide], the figure is 82.2 nM.

For the origin of these results see patent US20130303509A1, “NAMPT INHIBITORS” (AbbVie Inc., priority 2012, published 2013).
